Experimental data reported in ChEMBL document CHEMBL1152923, “ent-Kaurane diterpenoids from Isodon pharicus” (J Nat Prod, 2009).

Legend:
Format in all cases: functional, cell-based
NB-4 = assay: Cytotoxicity against human NB4 cells after 48 hrs by SRB method; settings: NB-4, 48 h
A549 = assay: Cytotoxicity against human A549 cells after 48 hrs by SRB method; settings: A549, 48 h
SH-SY5Y = assay: Cytotoxicity against human SH-SY5Y cells after 48 hrs by SRB method
PC-3 = assay: Cytotoxicity against human PC3 cells after 48 hrs by SRB method; settings: PC-3, 48 h
MCF7 = assay: Cytotoxicity against human MCF7 cells after 48 hrs by SRB method; settings: MCF7, 48 h

SMILES	IC50 (NB-4) [µM]	IC50 (A549) [µM]	IC50 (SH-SY5Y) [µM]	IC50 (PC-3) [µM]	IC50 (MCF7) [µM]
C=C1C(=O)[C@]23[C@H](O)[C@H]1C(=O)C[C@H]2[C@]1(C)CC[C@H](OC(C)=O)C(C)(C)[C@H]1C[C@H]3OC(C)=O	> 10	> 10	> 10	> 10	> 10
C=C1C(=O)[C@@]23[C@H](O)C[C@@H]4C(C)(C)[C@H](O)CC[C@@]4(C)[C@@H]2C[C@H](OC(C)=O)[C@@H]1[C@H]3O	8.32	> 10	8.12	> 10	> 10
C=C1[C@H]2[C@@H](OC(C)=O)[C@@]3(CC[C@@H]4C(C)(C)[C@@H](O)CC[C@@]4(C)[C@@H]3C[C@@H]2O)[C@@H]1O	> 10	> 10	> 10	> 10	> 10
COC[C@@H]1C(=O)[C@@]23[C@H](O)C[C@@H]4C(C)(C)[C@@H](OC(C)=O)CC[C@@]4(C)[C@@H]2CC(=O)[C@@H]1[C@H]3O	8.74	> 10	> 10	7.42	> 10
C=C1C(=O)[C@@]23[C@H](O)C[C@@H]4C(C)(C)[C@@H](OC(C)=O)C[C@H](O)[C@@]4(C)[C@@H]2C[C@H](O)[C@@H]1[C@H]3O	> 10	> 10	> 10	> 10	> 10
C=C1C(=O)[C@@]23[C@@H]4OC(C)(C)O[C@@H]2C[C@@H]2C(C)(C)[C@H](O)CC[C@@]2(C)[C@@H]3C[C@H](O)[C@@H]14	3.56	6.02	> 10	> 10	> 10
C=C1C(=O)[C@@]23[C@H](O)C[C@@H]4C(C)(C)[C@@H](O)CC[C@@]4(C)[C@@H]2C[C@H](O)[C@@H]1[C@H]3O [3-EPIPSEURATA B]	> 10	> 10	> 10	> 10	> 10
C=C1[C@@H]2C(=O)C[C@H]3[C@@]4(C)[C@H](C[C@@H](O)[C@@]3([C@@H]1O)[C@@H]2O)C(C)(C)[C@@H](OC(C)=O)C[C@@H]4O [DIHYDROPSEURATA F]	> 10	> 10	> 10	> 10	> 10
C=C1C(=O)[C@@]23[C@H](O)C[C@@H]4C(C)(C)C(=O)CC[C@@]4(C)[C@@H]2CC[C@@H]1[C@H]3O [GLAUCOCALYXIN A]	2.9	5.39	> 10	> 10	8.73
C=C1C(=O)[C@@]23[C@H](O)C[C@@H]4C(C)(C)C(=O)CC[C@@]4(C)[C@@H]2CC[C@@H]1[C@H]3OC(C)=O [GLAUCOCALYXIN B]	7.86	6.22	> 10	> 10	> 10
C=C1C(=O)[C@@]23[C@H](O)C[C@@H]4C(C)(C)[C@@H](OC(C)=O)C[C@H](O)[C@@]4(C)[C@@H]2CC[C@@H]1[C@H]3O [ISODOMEDIN]	7.29	> 10	> 10	> 10	> 10
C=C1C(=O)[C@@]23[C@H](O)C[C@@H]4C(C)(C)[C@@H](OC(C)=O)CC[C@@]4(C)[C@@H]2CC[C@@H]1[C@H]3O [LEUKAMENIN E]	4	> 10	> 10	> 10	> 10
C=C1C(=O)[C@@]23[C@H](O)C[C@@H]4C(C)(C)[C@@H](O)C[C@H](O)[C@@]4(C)[C@@H]2CC[C@@H]1[C@H]3O [MINHERYIN G]	> 10	> 10	> 10	> 10	> 10
C=C1C(=O)[C@@]23C(CC[C@@H]1[C@H]2O)[C@]1(C)CC[C@@H](O)C(C)(C)[C@H]1C[C@H]3O (stereo not given in full) [PSEURATA A]	7.69	2.92	> 10	> 10	9.05
C=C1C(=O)[C@@]23[C@H](O)C[C@@H]4C(C)(C)[C@H](O)CC[C@@]4(C)[C@@H]2C[C@H](O)[C@@H]1[C@H]3O [PSEURATA B]	> 10	> 10	> 10	> 10	> 10
C=C1C(=O)[C@@]23[C@H](O)C[C@@H]4C(C)(C)[C@@H](OC(C)=O)CC[C@@]4(C)[C@@H]2CC(=O)[C@@H]1[C@H]3O [PSEURATA C]	2.08	7.62	> 10	> 10	> 10
C=C1C(=O)[C@@]23[C@H](O)C[C@@H]4C(C)(C)[C@@H](OC(C)=O)C[C@H](O)[C@@]4(C)[C@@H]2CC(=O)[C@@H]1[C@H]3O [PSEURATA F]	> 10	> 10	> 10	> 10	> 10
C=C1C(=O)[C@@]23C(CC[C@@H]1[C@H]2O)[C@]1(C)CC[C@H](O)C(C)(C)[C@H]1C[C@H]3O (stereo not given in full) [WANGZAOZIN A]	9.02	9.29	> 10	> 10	5.8
